This passage reports Emax and EC50 results from patent US9168259B2 (GRÜNENTHAL GMBH, priority 2010, dated 2015).

pEC50: −log10 of the molar value.

This assay concerns the target T1, KCNQ2/3 channels (Homo sapiens, UniProt O43525+O43526).
T1 construct: expressed in transfected cells
As to the kind of experiment: Fluorescence assay using a voltage sensitive dye (fluorimetry). Format: cell-based. Conditions: CHO-K1 cells expressing KCNQ2/3; for Emax: CHO-K1, plateau effect relative to saturated retigabine (50 μM) = 100%, negative values = antagonistic, read-out: Fluorimetry % efficacy (retigabine = 100%); for pEC50: IC50 where % efficacy is negative, read-out: Fluorimetry EC50/IC50.

T1 sequence (O43526 whole entry): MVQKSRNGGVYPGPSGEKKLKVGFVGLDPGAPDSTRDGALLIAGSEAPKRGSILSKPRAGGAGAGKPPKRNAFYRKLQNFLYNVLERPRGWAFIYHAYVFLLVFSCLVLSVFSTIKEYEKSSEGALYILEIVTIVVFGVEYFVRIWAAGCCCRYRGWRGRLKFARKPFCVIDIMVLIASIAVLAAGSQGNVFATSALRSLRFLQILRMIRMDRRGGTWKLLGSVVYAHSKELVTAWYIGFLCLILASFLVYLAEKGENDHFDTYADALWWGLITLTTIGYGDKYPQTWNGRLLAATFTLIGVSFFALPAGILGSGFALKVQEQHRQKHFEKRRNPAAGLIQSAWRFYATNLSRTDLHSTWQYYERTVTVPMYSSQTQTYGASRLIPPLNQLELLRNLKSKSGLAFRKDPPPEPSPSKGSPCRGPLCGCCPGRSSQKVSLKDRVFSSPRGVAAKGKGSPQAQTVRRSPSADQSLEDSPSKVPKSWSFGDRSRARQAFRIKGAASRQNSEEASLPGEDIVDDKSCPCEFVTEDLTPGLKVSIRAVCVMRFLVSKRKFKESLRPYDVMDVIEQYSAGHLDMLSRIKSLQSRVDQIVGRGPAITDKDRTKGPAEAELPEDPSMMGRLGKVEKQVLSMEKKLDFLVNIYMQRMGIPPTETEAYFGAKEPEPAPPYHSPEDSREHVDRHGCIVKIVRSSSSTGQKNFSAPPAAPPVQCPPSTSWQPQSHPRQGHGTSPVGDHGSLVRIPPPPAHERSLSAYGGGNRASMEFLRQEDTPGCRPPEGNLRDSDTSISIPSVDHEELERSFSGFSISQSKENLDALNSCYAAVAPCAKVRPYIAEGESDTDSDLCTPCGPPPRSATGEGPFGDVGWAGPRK
T1 sequence (O43525 whole entry): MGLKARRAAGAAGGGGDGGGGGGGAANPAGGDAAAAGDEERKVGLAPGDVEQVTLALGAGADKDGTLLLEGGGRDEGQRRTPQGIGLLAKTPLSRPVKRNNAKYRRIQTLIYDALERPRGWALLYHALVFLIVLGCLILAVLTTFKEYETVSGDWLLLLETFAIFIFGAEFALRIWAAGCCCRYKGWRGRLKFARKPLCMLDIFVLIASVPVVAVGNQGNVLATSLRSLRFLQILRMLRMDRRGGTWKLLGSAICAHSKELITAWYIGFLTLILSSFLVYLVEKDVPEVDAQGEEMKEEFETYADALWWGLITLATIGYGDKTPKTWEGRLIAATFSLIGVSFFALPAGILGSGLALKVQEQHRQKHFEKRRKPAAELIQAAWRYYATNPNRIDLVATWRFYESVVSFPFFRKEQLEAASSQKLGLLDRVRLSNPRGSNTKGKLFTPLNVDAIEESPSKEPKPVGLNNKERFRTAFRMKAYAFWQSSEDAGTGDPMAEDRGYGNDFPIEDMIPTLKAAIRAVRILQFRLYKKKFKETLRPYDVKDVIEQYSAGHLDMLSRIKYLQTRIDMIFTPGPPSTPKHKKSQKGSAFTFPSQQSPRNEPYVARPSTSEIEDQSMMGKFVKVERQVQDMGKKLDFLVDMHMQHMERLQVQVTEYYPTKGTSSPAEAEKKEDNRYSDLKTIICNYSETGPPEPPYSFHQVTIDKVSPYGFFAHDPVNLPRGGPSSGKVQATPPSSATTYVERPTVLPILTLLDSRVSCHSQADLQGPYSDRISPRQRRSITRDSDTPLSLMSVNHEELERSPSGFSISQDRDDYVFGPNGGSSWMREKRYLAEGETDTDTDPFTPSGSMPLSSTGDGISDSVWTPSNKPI

For the compound `CCSc1nc(N2CCOCC2)cc(C)c1C(=O)NCC(O)Cc1ccccc1` (stereo not drawn) [Example 202, 2-Ethylsulfanyl-N-(2-hydroxy-3-phenyl-propyl)-4-methyl-6-morpholin-4-yl-pyridine-3-carboxylic acid amide], the Emax turned out to be 129% and the pEC50 is 5.22.

Regarding `CCN(C)c1nc(N2CCOCC2)cc(C)c1C(=O)NCc1ccc(F)c(F)c1` [Example 203, N-[(3,4-Difluoro-phenyl)-methyl]-2-(ethyl-methyl-amino)-4-methyl-6-morpholin-4-yl-pyridine-3-carboxylic acid amide], the Emax came to 220% and the pEC50 is 6.66.

On to `CCN(C)c1nc(N2CCOCC2)cc(C)c1C(=O)NCc1cc(F)cc(F)c1` [Example 204, N-[(3,5-Difluoro-phenyl)-methyl]-2-(ethyl-methyl-amino)-4-methyl-6-morpholin-4-yl-pyridine-3-carboxylic acid amide], for which the Emax amounted to 239% and the pEC50 was 6.85.

As for `Cc1cc(N2CCOCC2)nc(N(C)C)c1C(=O)NCc1ccc(F)cc1` [Example 205, 2-Dimethylamino-N-[(4-fluorophenyl)-methyl]-4-methyl-6-morpholin-4-yl-pyridine-3-carboxylic acid amide], the Emax was determined as 205% and the pEC50 is 6.05.

Take `Cc1cc(N2CCOCC2)nc(N(C)C)c1C(=O)NCc1ccc(F)c(F)c1` [Example 206, N-[(3,4-Difluoro-phenyl)-methyl]-2-dimethylamino-4-methyl-6-morpholin-4-yl-pyridine-3-carboxylic acid amide]: the Emax was 207% and the pEC50 is 6.40.

As for `CCSc1nc(N2CCOC[C@H]2C)cc(C)c1C(=O)NCc1ccc(Cl)cc1` [Example 207, N-[(4-Chlorophenyl)-methyl]-2-ethylsulfanyl-4-methyl-6-[(3R)-3-methyl-morpholin-4-yl]-pyridine-3-carboxylic acid amide], the Emax is 183% and the pEC50 is 7.16.

Turning to `CCSc1nc(N2CCOCC2)cc(C)c1C(=O)NCc1cc(C)cc(C)c1` [Example 208, N-[(3,5-Dimethyl-phenyl)-methyl]-2-ethylsulfanyl-4-methyl-6-morpholin-4-yl-pyridine-3-carboxylic acid amide], the Emax is 61% and the pEC50 is 6.55.

As to `CCCCCCCNC(=O)c1c(C)cc(N2CCOCC2)nc1SCC` [Example 209, 2-Ethylsulfanyl-N-heptyl-4-methyl-6-morpholin-4-yl-pyridine-3-carboxylic acid amide], the Emax was 192% and the pEC50 was 6.63.

`CCSc1nc(N(C)C)cc(C)c1C(=O)NCCCC(C)(C)C` [Example 210, 6-Dimethylamino-N-(4,4-dimethyl-pentyl)-2-ethylsulfanyl-4-methyl-pyridine-3-carboxylic acid amide]: the Emax came to 223% and the pEC50 is 6.73.

Turning to `CCSc1nc(N(C)CCOC)cc(C)c1C(=O)NCCCC(C)(C)C` [Example 211, N-(4,4-Dimethyl-pentyl)-2-ethylsulfanyl-6-(2-methoxy-ethyl-methyl-amino)-4-methyl-pyridine-3-carboxylic acid amide], the Emax was found to be 225% and the pEC50 is 6.84.

For the compound `CCSc1nc(N(C)CCCOC)cc(C)c1C(=O)NCCCC(C)(C)C` [Example 212, N-(4,4-Dimethyl-pentyl)-2-ethylsulfanyl-6-(3-methoxy-propyl-methyl-amino)-4-methyl-pyridine-3-carboxylic acid amide], the Emax came out at 200% and the pEC50 is 6.82.

As for `CCCC1COCCN1c1cc(C)c(C(=O)NCc2cccc(F)c2)c(SCC)n1` (stereo not drawn) [Example 213, 2-Ethylsulfanyl-N-[(3-fluorophenyl)-methyl]-4-methyl-6-(3-propyl-morpholin-4-yl)-pyridine-3-carboxylic acid amide], the Emax stood at 131% and the pEC50 was 7.31.

For the compound `COc1nc(N2CCOC[C@H]2C)cc(C)c1C(=O)NCc1cccc(F)c1` [Example 214, N-[(3-Fluorophenyl)-methyl]-2-methoxy-4-methyl-6-[(3R)-3-methyl-morpholin-4-yl]-pyridine-3-carboxylic acid amide], the Emax was 194% and the pEC50 is 6.65.

Turning to `COc1nc(N2CCOC[C@H]2C)cc(C)c1C(=O)NCc1ccc(Cl)cc1` [Example 215, N-[(4-Chlorophenyl)-methyl]-2-methoxy-4-methyl-6-[(3R)-3-methyl-morpholin-4-yl]-pyridine-3-carboxylic acid amide], the Emax was found to be 191% and the pEC50 was 6.83.

With `CCC(C)c1nc(N2CCOCC2)cc(C)c1C(=O)NCc1cccc(F)c1` (stereo not drawn) [Example 216, N-[(3-Fluorophenyl)-methyl]-4-methyl-2-(1-methyl-propyl)-6-morpholin-4-yl-pyridine-3-carboxylic acid amide], the Emax was 181% and the pEC50 was 7.16.

`CCCCCCNC(=O)c1c(C)cc(N2CCOCC2)nc1SCC` [Example 217, 2-Ethylsulfanyl-N-hexyl-4-methyl-6-morpholin-4-yl-pyridine-3-carboxylic acid amide]: the Emax was found to be 181% and the pEC50 was 6.39.

For `CCSc1nc(N(C)C2CCOC2)cc(C)c1C(=O)NCCCC(C)(C)C` (stereo not drawn) [Example 218, N-(4,4-Dimethyl-pentyl)-2-ethylsulfanyl-4-methyl-6-(methyl-tetrahydro-furan-3-yl-amino)-pyridine-3-carboxylic acid amide], the Emax amounted to 194% and the pEC50 is 6.57.

For the compound `CCSc1nc(N2CCOC(C)C2)cc(C)c1C(=O)NCCCC(C)(C)C` (stereo not drawn) [Example 219, N-(4,4-Dimethyl-pentyl)-2-ethylsulfanyl-4-methyl-6-(2-methyl-morpholin-4-yl)-pyridine-3-carboxylic acid amide], the Emax is 212% and the pEC50 is 7.04.

Take `Cc1cc(N2CCOCC2)nc(C(C)(C)C)c1C(=O)NCCCC(C)(C)C` [Example 220, 2-tert-Butyl-N-(4,4-dimethyl-pentyl)-4-methyl-6-morpholin-4-yl-pyridine-3-carboxylic acid amide]: the Emax came to 166% and the pEC50 was 6.17.

Take `CCC(C)c1nc(N2CCOCC2)cc(C)c1C(=O)NCCCC(C)(C)C` (stereo not drawn) [Example 221, N-(4,4-Dimethyl-pentyl)-4-methyl-2-(1-methyl-propyl)-6-morpholin-4-yl-pyridine-3-carboxylic acid amide]: the Emax came out at 259% and the pEC50 was 7.66.

Take `CCSc1nc(N2CCC3(COC3)C2)cc(C)c1C(=O)NCc1cccc(F)c1` [Example 222, 2-Ethylsulfanyl-N-[(3-fluorophenyl)-methyl]-4-methyl-6-(2-oxa-6-azaspiro[3.4]octan-6-yl)-pyridine-3-carboxylic acid amide]: the Emax was 56% and the pEC50 was 5.14.

`CCSc1nc(N2CCO[C@@H](COC)C2)cc(C)c1C(=O)NCc1cccc(F)c1` [Example 223, 2-Ethylsulfanyl-N-[(3-fluorophenyl)-methyl]-6-[(2R)-2-(methoxymethyl)-morpholin-4-yl]-4-methyl-pyridine-3-carboxylic acid amide]: the Emax was found to be 137% and the pEC50 was 5.44.

As to `CCSc1nc(N2CCO[C@H](COC)C2)cc(C)c1C(=O)NCc1cccc(F)c1` [Example 224, 2-Ethylsulfanyl-N-[(3-fluorophenyl)-methyl]-6-[(2S)-2-(methoxymethyl)-morpholin-4-yl]-4-methyl-pyridine-3-carboxylic acid amide], the Emax worked out at 136% and the pEC50 is 6.16.

With `CCSc1nc(N2CCOC[C@H]2C)cc(C)c1C(=O)NCc1ccc(F)c(F)c1` [Example 225, N-[(3,4-Difluoro-phenyl)-methyl]-2-ethylsulfanyl-4-methyl-6-[(3R)-3-methyl-morpholin-4-yl]-pyridine-3-carboxylic acid amide], the Emax stood at 173% and the pEC50 was 7.15.

As to `COc1nc(N2CCOC[C@H]2C)cc(C)c1C(=O)NCc1ccc(F)c(F)c1` [Example 226, N-[(3,4-Difluoro-phenyl)-methyl]-2-methoxy-4-methyl-6-[(3R)-3-methyl-morpholin-4-yl]-pyridine-3-carboxylic acid amide], the Emax amounted to 186% and the pEC50 was 6.89.

With `CCSc1nc(N2CCOCC2)cc(C)c1C(=O)NCCC(O)c1ccccc1` (stereo not drawn) [Example 227, 2-Ethylsulfanyl-N-(3-hydroxy-3-phenyl-propyl)-4-methyl-6-morpholin-4-yl-pyridine-3-carboxylic acid amide], the Emax stood at 165% and the pEC50 was 5.38.

Consider `CCSc1nc(N2CCOCC2)cc(C)c1C(=O)NCC(O)CC(C)C` (stereo not drawn) [Example 228, 2-Ethylsulfanyl-N-(2-hydroxy-4-methyl-pentyl)-4-methyl-6-morpholin-4-yl-pyridine-3-carboxylic acid amide], for which the Emax is 180% and the pEC50 was 5.61.

In the case of `CCSc1nc(N2CCOC(CCOC)C2)cc(C)c1C(=O)NCc1cccc(F)c1` (stereo not drawn) [Example 229, 2-Ethylsulfanyl-N-[(3-fluorophenyl)-methyl]-6-[2-(2-methoxy-ethyl)-morpholin-4-yl]-4-methyl-pyridine-3-carboxylic acid amide], the Emax is 132% and the pEC50 is 6.14.

Consider `CCSc1nc(N2CCOCC2)cc(C)c1C(=O)NCCCC(C)(C)CO` [Example 230, 2-Ethylsulfanyl-N-(5-hydroxy-4,4-dimethyl-pentyl)-4-methyl-6-morpholin-4-yl-pyridine-3-carboxylic acid amide], for which the Emax came to 131% and the pEC50 is 4.89.

Take `CCSc1nc(N2CCOCC2)cc(C)c1C(=O)NCc1cccc(S(C)(=O)=O)c1` [Example 231, 2-Ethylsulfanyl-4-methyl-N-[(3-methylsulfonyl-phenyl)-methyl]-6-morpholin-4-yl-pyridine-3-carboxylic acid amide]: the Emax came to 61% and the pEC50 was 4.98.
